From US20220324835A1 (Nurix Therapeutics, Inc., priority 2018, published 2022)
Where two headings read alike, the source gives them in different places.

Experiments:
T-cells = assay: In vivo activity: CD25 expression on CD4+ or CD8+ T-cells of mice stimulated with anti-CD3 antibody; conditions: 2 μg anti-CD3 antibody, 24 hours
Procedure, shortened: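 C57BL/6 or BALB/c mice dosed with inhibitor (IV, IP, SC or PO, e.g. BID or TID), then stimulated with 2 μg anti-CD3 antibody. Plasma IL-2, IFNγ, TNFα at 8 h and CD25 on CD4+/CD8+ T-cells by flow cytometry at 24 h; fold change over vehicle plus anti-CD3, binned A–E.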

primary human NK cells = assay: NK cell activation assessed by cytokine secretion (coculture with K562 NucRed target cells); assay type: cell-based; conditions: for fold induction at 0.625 µM: 0.625 μM compound; for fold induction at 2.5 µM: 2.5 μM compound
Procedure, shortened: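 Primary NK cells from donor PBMC, IL-2 (60 ng/mL) overnight, then Cbl-b inhibitor (e.g. 10, 1 or 0.1 μM; DMSO <0.1%) for 1 h before 6 h coculture with K562 NucRed at effector:target ratios such as 5:1, 1:1 or 1:5. Supernatant IFNγ, TNFα, MIP1β measured by ELISA or Luminex; fold change over inhibitor-free baseline, >2.0-fold positive.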

[1] = K562, NK cells cocultured with K562 NucRed, 1:1 E/T, read-out: IFNγ secretion, fold change over baseline
[2] = K562, NK cells cocultured with K562 NucRed, 1:1 E/T, read-out: TNFα secretion, fold change over baseline
[3] = K562, NK cells cocultured with K562 NucRed, 1:1 E/T, 10 μM compound, read-out: IFNγ secretion, fold change over baseline
[4] = K562, NK cells cocultured with K562 NucRed, 1:1 E/T, 10 μM compound, read-out: TNFα secretion, fold change over baseline
[5] = K562, 1:1 E/T, read-out: IFNγ secretion
[6] = K562, 1:1 E/T, read-out: MIP1β secretion
[7] = K562, 1:1 E/T, read-out: TNFα secretion
[8] = K562, 1:1 E/T, 10 μM, read-out: IFNγ secretion
[9] = K562, 1:1 E/T, 10 μM, read-out: MIP1β secretion
[10] = K562, 1:1 E/T, 10 μM, read-out: TNFα secretion
[11] = K562, 5:1 E/T, read-out: IFNγ secretion
[12] = K562, 5:1 E/T, read-out: MIP1β secretion
[13] = K562, 5:1 E/T, read-out: TNFα secretion
[14] = K562, 5:1 E/T, 10 μM, read-out: IFNγ secretion
[15] = K562, 5:1 E/T, 10 μM, read-out: MIP1β secretion
[16] = K562, 5:1 E/T, 10 μM, read-out: TNFα secretion

Row | Compound | CD4+ T-cell % CD25+ (T-cells; 90 mpk PO BID) | CD8+ T-cell % CD25+ (T-cells; 90 mpk PO BID) | CD4+ T-cell % CD25+ (T-cells; 135 mpk PO BID) | CD8+ T-cell % CD25+ (T-cells; 135 mpk PO BID) | CD4+ T-cell % CD25+ (T-cells; 180 mpk PO BID) | CD8+ T-cell % CD25+ (T-cells; 180 mpk PO BID) | fold induction at 0.625 µM (primary human NK cells; [1]) | fold induction at 0.625 µM (primary human NK cells; [2]) | fold induction at 2.5 µM (primary human NK cells; [1]) | fold induction at 2.5 µM (primary human NK cells; [2]) | fold induction at 10 µM (primary human NK cells; [3]) | fold induction at 10 µM (primary human NK cells; [4]) | fold induction at 1 µM (primary human NK cells; [5]) | fold induction at 1 µM (primary human NK cells; [6]) | fold induction at 1 µM (primary human NK cells; [7]) | fold induction at 10 µM (primary human NK cells; [8]) | fold induction at 10 µM (primary human NK cells; [9]) | fold induction at 10 µM (primary human NK cells; [10]) | fold induction at 1 µM (primary human NK cells; [11]) | fold induction at 1 µM (primary human NK cells; [12]) | further results
1 | Cc1cc(C(=O)Nc2cccc(C3(Cc4nncn4C)COC3)c2)nc(C2CC2)n1 [Compound 336, 2-cyclopropyl-6-methyl-N-(3-(3-((4-methyl-4H-1,2,4-triazol-3-yl)methyl)oxetan-3-yl)phenyl)pyrimidine-4-carboxamide] | D (D indicates 1.00-1.50) | D (D indicates 1.00-1.50) | C (C indicates 1.51-2.00) | D (D indicates 1.00-1.50) | C (C indicates 1.51-2.00) | D (D indicates 1.00-1.50) | 2.01 to 5 | 1.01 to 2 | > 5 | 2.01 to 5 | > 5 | 2.01 to 5 |  |  |  |  |  |  |  |  | CD4+ T-cell % CD25+ (T-cells; 45 mpk PO BID): D (D indicates 1.00-1.50); CD8+ T-cell % CD25+ (T-cells; 45 mpk PO BID): D (D indicates 1.00-1.50)
2 | C[C@H](Cc1nncn1C)c1cccc(NC(=O)c2cc(C3CC3)cc(C(F)(F)F)n2)c1 [Compound 191, (R)-4-cyclopropyl-N-(3-(1-(4-methyl-4H-1,2,4-triazol-3-yl)propan-2-yl)phenyl)-6-(trifluoromethyl)picolinamide] | D (D indicates 1.00-1.50) | D (D indicates 1.00-1.50) | D (D indicates 1.00-1.50) | D (D indicates 1.00-1.50) | B (B indicates 2.01-2.50) | D (D indicates 1.00-1.50) |  |  |  |  |  |  | 2.01 to 5 | 1.01 to 2 | 2.01 to 5 | 2.01 to 5 | 1.01 to 2 | 1.01 to 2 | 2.01 to 5 | 1.01 to 2 | CD4+ T-cell % CD25+ (T-cells; 45 mpk IP BID): C (C indicates 1.51-2.00); CD8+ T-cell % CD25+ (T-cells; 45 mpk IP BID): D (D indicates 1.00-1.50); fold induction at 1 µM (primary human NK cells; [13]): 2.01 to 5; fold induction at 10 µM (primary human NK cells; [14]): > 5; fold induction at 10 µM (primary human NK cells; [15]): 1.01 to 2; fold induction at 10 µM (primary human NK cells; [16]): 2.01 to 5
3 | CN1CC2CCC(C1)N2c1cc2c(c(C(F)(F)F)c1)CN(c1cccc(C3(Cc4nncn4C)COC3)c1)C2=O [Compound 386, 2-(3-(3-((4-Methyl-4H-1,2,4-triazol-3-yl)methyl)oxetan-3-yl)phenyl)-6-(3-methyl-3,8-diazabicyclo[3.2.1]octan-8-yl)-4-(trifluoromethyl)isoindolin-1-one] |  |  | C (C indicates 1.51-2.00) | D (D indicates 1.00-1.50) |  |  |  |  |  |  |  |  |  |  |  |  |  |  |  |  | 
4 | Cn1cnnc1[C@@H](F)C1(c2cccc(N3Cc4c(cc(CN5CCC(F)CC5)cc4C(F)(F)F)C3=O)c2)COC1 [Example 670a, (S)-2-(3-(3-(fluoro(4-methyl-4H-1,2,4-triazol-3-yl)methyl)oxetan-3-yl)phenyl)-6-((4-fluoropiperidin-1-yl)methyl)-4-(trifluoromethyl)isoindolin-1-one] |  |  | B (B indicates 2.01-2.50) | D (D indicates 1.00-1.50) |  |  |  |  |  |  |  |  |  |  |  |  |  |  |  |  | 
5 | Cc1cc(C(=O)Nc2cccc([C@H](C)Cc3nncn3C)c2)nc(C2CC2)n1 [Compound 195, (R)-2-cyclopropyl-6-methyl-N-(3-(1-(4-methyl-4H-1,2,4-triazol-3-yl)propan-2-yl)phenyl)pyrimidine-4-carboxamide] | D (D indicates 1.00-1.50) | D (D indicates 1.00-1.50) | D (D indicates 1.00-1.50) | D (D indicates 1.00-1.50) | C (C indicates 1.51-2.00) | D (D indicates 1.00-1.50) | 2.01 to 5 | 1.01 to 2 | 2.01 to 5 | 2.01 to 5 | > 5 | 2.01 to 5 | 2.01 to 5 | 1.01 to 2 | 2.01 to 5 | 2.01 to 5 | 2.01 to 5 | 2.01 to 5 | 2.01 to 5 | 2.01 to 5 | fold induction at 1 µM (primary human NK cells; [13]): 2.01 to 5; fold induction at 10 µM (primary human NK cells; [14]): > 5; fold induction at 10 µM (primary human NK cells; [15]): 2.01 to 5; fold induction at 10 µM (primary human NK cells; [16]): > 5
6 | C[C@H](Cc1nncn1C)c1cccc(NC(=O)c2cccc(C(F)(F)F)n2)c1 [Compound 183a, (R)-N-(3-(1-(4-methyl-4H-1,2,4-triazol-3-yl)propan-2-yl)phenyl)-6-(trifluoromethyl)picolinamide] |  |  |  |  |  |  | 2.01 to 5 | 1.01 to 2 | 2.01 to 5 | 2.01 to 5 | 2.01 to 5 | 2.01 to 5 |  |  |  |  |  |  |  |  | CD4+ T-cell % CD25+ (T-cells; 90 mpk IP BID): D (D indicates 1.00-1.50); CD8+ T-cell % CD25+ (T-cells; 90 mpk IP BID): D (D indicates 1.00-1.50)
